Assays:
GABA-A receptor = assay: 35S-TBPS binding assay (GABAA receptor binding ability assay); parameters: species or system Sprague-Dawley rat; settings: rat cerebral cortex cell membrane, 5 μM GABA, 2 nM 35S-TBPS; read-out: IC50 on inhibiting the TBPS binding activity, 35S-TBPS bindng assay
Summary of the method: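 Male Sprague-Dawley rat cerebral cortex membranes in PBS, preincubated with compound (1% DMSO, 8-point 3-fold series) 5 min at 25° C, then GABA 5 μM final 5 min, then 2 nM 35S-TBPS for 20 h at 4° C. Bound radioactivity filtered on PEI-treated GF/C and counted. % inhibition relative to DMSO and 10 μM P026-2 controls; IC50 from 4-parameter fit.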

[1] = target: T1, human GABAA receptor α1, β2 and γ2 subunit (HEK293T cell line) (Homo sapiens, UniProt P14867+P47870); assay: Positive regulatory effect on GABAA receptor, manual patch clamp; assay type: cell-based; settings: whole-cell current, 1 μM GABA
T1 construct: expressed in transfected cells
Method: The objective of this test example is to determine the positive regulatory effect of the compound on GABAA receptor by the electrophysiological manual patch clamp method.
Manual patch clamp system HEKA EPC10 USB signal amplifier and digital conversion system (purchased from HEKA Electronics, Germany), centrifuge (Eppendorf, etc.), carbon dioxide incubator (purchased from Thermo, etc.), biological safety cabinet (Thermo, etc.), pipette (purchased from Eppendorf, etc.).
The cells were grown in a culture dish with DMEM medium (purchased from Invitrogen), and cultured in an incubator at 37° C. and 5% CO2. Before the electrophysiological experiment, the cells were transferred to a round glass slide placed in the culture dish, and grown in the same culture medium and under the same culture condition as above. The density of cells on each round glass slide should meet the requirement that most cells were independent and individual.
Each test compound was diluted in gradient with DMSO to obtain a stock solution, which was then diluted with extracellular fluid by 1,000-fold to obtain the final test concentration. The final concentration of DMSO in the compound solution with each concentration was 0.1%. The experiment used the manual patch clamp system HEKA EPC10 USB signal amplifier and digital conversion system for whole cell current recording. The round glass slide with HEK293T GABAA cells grown on the surface was taken out of the culture dish, and placed in the electrophysiological recording tank under the inverted microscope. The recording tank was continuously perfused with extracellular fluid. During the experiment, the whole-cell current recording technology was used to record the chloride current of the GABAA channel. 1 μM GABA was used to activate the chloride current of the GABAA channel of each cell as an initial control. 1 μM GABA acted on the cell through the drug perfusion system to induce the chloride current of the GABAA channel, the action time was about 3 to 5 seconds, and the current value was used as the initial control value. The test concentration of compound was perfused and incubated for 2 to 5 minutes. […] GABA solution (mixed with the test concentration of compound) was given to the cells to observe the enhancement effect of the test compound on the current induced by 1 μM GABA. When the cell state was stable, the test compound acted on the same cell from low to high concentration to record the enhancement effect of the induced current.
The experimental data was analyzed by HEKA Patchmaster, Microsoft Excel and the data analysis software provided by Graphpad Prism.

ICR mice = assay: Forced swimming model in mice; assay type: in vivo; settings: for Mean (immobility, %): floating time/240 s; for Mean (immobility, s): latter four minutes of 6 min swim
Method: The antidepressant effect of the compound was evaluated by the forced swimming model in mice.
Compounds of Examples 1 to 3, Example 9, Example 40, Example 41, Examples 48 to 52, Example 90 and Example 98 of the present invention, prepared by the applicant.
Male ICR mice (25-35 g) were adapted in the experiment environment for 3 days before the forced swimming test.
According to the experiment design, the mice were randomly grouped on the day before the experiment according to body weight, with 12 mice in each group. Before the test, the compounds of each example were administered intragastrically according to the Tmax thereof in the brain in mice pharmacokinetic experiment.
Respectively: • 1) Model group (0.5% CMC-Na-1% Tween 80 solution, p.o., 10 mL/kg); • 2) Compounds of Examples 1 to 3, Example 40, Example 41, Examples 48 to 51, Example 90 and Example 98 (10 mg/kg, p.o., 10 mL/kg); Example 9 and Example 52 (5 mg/kg, p.o., 5 mL/kg).
When being administered, the compounds of each example were suspended in 0.5% CMC-Na+1% Tween 80 solution to the desired concentration.
0.5-1 hour after administration, ICR mice were placed in a forced swimming device (transparent glass drum (water depth 18 cm, water temperature 25-26° C.), one mouse per tank) and forced to swim for 6 minutes. The forced swimming device recorded the floating time of the ICR mice during the entire 6 minutes, and the data of the latter four minutes were used for data analysis. The mice were taken out immediately after the swimming experiment, wiped dry and put back in their original cages.
Note: The criterion for determining the immobility time is that the mouse stops struggling in water and floats, and there are only slight limb movements to keep the head floating on the water.
3.4 Data Analysis Floating time percentage=100*floating time/240 s.

CD-1 mice = assay: PTZ-induced epilepsy model in mice; assay type: in vivo; settings: 3 mpk p.o., PTZ 120 mg/kg s.c., 30 min observation
Method: The PTZ-induced epilepsy model in CD-1 mice was established, and the antiepileptic effect of the compounds of Example 2, Example 40, Example 41 and Example 52 was evaluated using this model.
50 male CD-1 mice were purchased from Beijing Vital River Laboratory Animal Technology Co. Ltd. The test animals were adapted at the animal room in the third building of Shanghai ChemPartner Co., Ltd for 7 days before the experiment. The average body weight of the animals on the test day was 32.2±0.2 grams. Feeding environment: 5 animals/cage, room temperature 23±2° C., 12/12 hours of light and dark cycle, free access to food and water.
The mice were randomly grouped for the experiment on the test day.
Compounds of Example 2, Example 40, Example 41 and Example 52 (prepared by the applicant). The test compounds were stored in a refrigerator at 4° C.
4.2.3 Test Equipments • 1 ml sterile disposable syringe with needle (purchased from Zhejiang Kangdelai Medical Devices Co., Ltd.) • Pipette: Eppendorf Research Plus (100-1000 μL) • Vortex mixer: Kylin-Bell Vortex 5 • Ultrasonic instrument: JL-360 ultrasonic cleaner • Balance: METTLER TOLEDO XS204 precision balance • Balance: METTLER TOLEDO XS6002S electronic balance • Plexiglass box: 25 cm length*15 cm width*15 cm height with one opaque side wall, custom made by Suzhou Fengshi Laboratory Animal Equipment Co., Ltd • 3-channel timer: Oregon/Model NO. WB-388. 4.2.4 Test Animal Grouping • 1) Vehicle/PTZ: 0.5% CMC-Na+1% Tween-80 (10 ml/kg, p.o.), administered 0.5 hr before the PTZ administration; PTZ ([…], s.c.), administered before the experiment; • 2) 3 mg/kg of the compounds of Examples/PTZ: the compounds of Example 2, Example 40, Example 41 and Example 52 (3 mg/kg, 10 ml/kg, p.o.), administered 0.5 hr before the PTZ administration; PTZ ([…], s.c.), administered before the experiment. 4.3 Experimental Procedures 4.3.1 Solvent Formulation • 1) 0.5% CMC-Na+1% Tween-80 (administration volume: 10 mL/kg):
1 g of sodium carboxymethyl cellulose was precisely weighed and added to a 250 mL solvent bottle, then 150 mL of double-distilled water was added. The mixture was stirred at room temperature for 4 hours with a magnetic stirrer to obtain a uniform and clear solution. 2 mL of Tween-80 was slowly added, and the mixture was stirred at room temperature for 3 hours to obtain a uniform and clear solution. The solution was slowly transferred to a 200 mL volumetric flask, and double distilled water was added to the constant volume of 200 mL. The solution was transferred to a 250 mL solvent bottle, and stirred for 1 hour with a magnetic stirrer to obtain a uniform and clear solution. • 2) 30% hydroxypropyl-p-cyclodextrin:
248 mg of PTZ was precisely weighed and added to a 40 mL brown flask, then 20.667 mL of physiological saline was added. The mixture was mixed by vortex for 2 minutes, and treated by ultrasound at room temperature for 2 minutes to obtain a uniform and clear solution (concentration: 12 mg/mL). • 2) 0.3 mg/mL of the compounds of Example 5 or Example 23 (dose: 3 mg/kg; administration volume: 10 mL/kg): […]
4.4 Adaptation to the Environment
The mice were randomly grouped, marked and weighed; 10 mice per group. The test compound was administered orally at an administration volume of 10 mL/kg 30-60 minutes before the PTZ administration.
PTZ (120 mg/kg) was administrated subcutaneously before the experiment observation, and this time point was recorded as the observation start point; after the administration of PTZ, the animal was immediately placed in the observation box and observed for 30 minutes, and the followings were recorded: a) the incubation period of the first clonic seizure, b) the incubation period of the first generalized tonic seizure, c) the number of clonic seizures, d) the number of generalized tonic seizures, e) the time when the animal died.
All measurement data were expressed as Mean±SEM, and analysed with Prism 6.0 statistical software.

T1 sequence (P14867 28-456): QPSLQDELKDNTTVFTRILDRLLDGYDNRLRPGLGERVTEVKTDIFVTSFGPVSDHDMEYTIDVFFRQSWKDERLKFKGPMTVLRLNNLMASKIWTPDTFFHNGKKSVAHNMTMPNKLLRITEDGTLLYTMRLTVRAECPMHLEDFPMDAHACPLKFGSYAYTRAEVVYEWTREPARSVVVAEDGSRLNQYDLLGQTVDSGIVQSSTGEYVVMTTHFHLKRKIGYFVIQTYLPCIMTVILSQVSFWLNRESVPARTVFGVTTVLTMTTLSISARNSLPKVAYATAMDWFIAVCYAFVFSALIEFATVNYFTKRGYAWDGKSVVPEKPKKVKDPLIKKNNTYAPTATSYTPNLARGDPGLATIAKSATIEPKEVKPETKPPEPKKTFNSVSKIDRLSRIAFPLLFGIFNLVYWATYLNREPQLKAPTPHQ
T1 sequence (P47870 25-512 limits assumed): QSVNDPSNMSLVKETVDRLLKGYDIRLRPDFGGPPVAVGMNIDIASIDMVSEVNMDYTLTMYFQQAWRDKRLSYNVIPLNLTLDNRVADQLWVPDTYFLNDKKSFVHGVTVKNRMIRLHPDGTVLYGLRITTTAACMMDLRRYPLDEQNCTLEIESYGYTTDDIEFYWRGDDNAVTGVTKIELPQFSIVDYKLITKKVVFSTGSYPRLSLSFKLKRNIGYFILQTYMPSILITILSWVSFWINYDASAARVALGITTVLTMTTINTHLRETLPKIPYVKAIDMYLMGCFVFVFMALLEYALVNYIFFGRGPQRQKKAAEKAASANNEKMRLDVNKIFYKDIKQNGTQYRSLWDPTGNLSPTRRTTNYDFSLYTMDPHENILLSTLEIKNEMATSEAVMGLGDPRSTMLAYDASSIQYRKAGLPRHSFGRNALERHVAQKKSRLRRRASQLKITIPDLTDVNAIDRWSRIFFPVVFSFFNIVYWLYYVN
T1 sequence (P18507 40-475 partner): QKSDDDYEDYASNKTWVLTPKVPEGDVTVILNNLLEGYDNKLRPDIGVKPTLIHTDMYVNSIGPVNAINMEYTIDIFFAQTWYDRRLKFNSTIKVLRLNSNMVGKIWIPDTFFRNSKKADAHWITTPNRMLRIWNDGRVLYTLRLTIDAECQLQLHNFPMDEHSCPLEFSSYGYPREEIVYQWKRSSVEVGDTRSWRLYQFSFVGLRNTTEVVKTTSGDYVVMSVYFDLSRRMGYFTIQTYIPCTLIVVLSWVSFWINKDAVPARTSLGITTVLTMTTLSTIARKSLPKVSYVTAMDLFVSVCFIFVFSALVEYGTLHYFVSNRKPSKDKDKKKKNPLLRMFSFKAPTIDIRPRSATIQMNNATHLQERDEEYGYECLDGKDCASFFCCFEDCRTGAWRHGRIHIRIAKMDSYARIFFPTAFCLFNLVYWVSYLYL

| SMILES | IC50 (GABA-A receptor) | EC50 [1] | Mean (immobility, %) (ICR mice; dose 5 mpk p.o.) | Mean (immobility, s) (ICR mice; dose 5 mpk p.o.) | Incubation period of the clonic seizure (sec) Mean ± SEM (CD-1 mice) | Incubation period of the generalized tonic seizure (sec) Mean (CD-1 mice) | Mortality rate (%) (CD-1 mice) | Number of clonic seizures Mean (CD-1 mice) | Number of generalized tonic seizures Mean (CD-1 mice) | Time when the animal died (sec) Mean (CD-1 mice) | Mean (immobility, %) (ICR mice; dose 10 mpk p.o.) | Mean (immobility, s) (ICR mice; dose 10 mpk p.o.) | immobility time during the latter four minutes compared with that of the model group (ICR mice; forced swimming, ICR mice) |
| --- | --- | --- | --- | --- | --- | --- | --- | --- | --- | --- | --- | --- | --- |
| C[C@@H]1C[C@H](C(=O)Cn2cc(C#N)cn2)[C@@]2(C)CC[C@H]3[C@@H](CC[C@@H]4C[C@](C)(O)CC[C@@H]43)[C@H]12 [Example 9, 1-(2-((3R,5R,8R,9R,10S,13S,14S,15R)-3-Hydroxy-3,13,15-trimethylhexadecahydro-1H-cyclopenta[a]phenanthren-17-yl)-2-oxoethyl)-1H-pyrazole-4-carbonitrile] | 4.6 nM | 60 nM | 57.60% | 138.22 s |  |  |  |  |  |  |  |  |  |
| C[C@@H]1C[C@H](C(=O)Cn2nccn2)[C@@]2(C)CC[C@H]3[C@@H](CC[C@@H]4C[C@](C)(O)CC[C@@H]43)[C@H]12 [Example 41, 1-((3R,5R,8R,9R,10S,13S,14S,15R,17S)-3-Hydroxy-3,13,15-trimethylhexadecahydro-1H-cyclopenta[a]phenanthren-17-yl)-2-(2H-1,2,3-triazol-2-yl)ethan-1-one] |  | 130 nM |  |  | 841.4 ± 179.8 s | 1497.4 ± 124.3 s | 40% | 1.9 ± 0.4 | 0.5 ± 0.2 | 1573.1 ± 117.9 s | 35.75% | 85.8 s | very significantly different |
| Cc1nnn(CC(=O)[C@H]2C[C@@H](C3CC3)[C@H]3[C@@H]4CC[C@@H]5C[C@](C)(O)CC[C@@H]5[C@H]4CC[C@@]32C)n1 [Example 52, 1-((3R,5R,8R,9R,10S,13S,14S,15S,17S)-15-Cyclopropyl-3-hydroxy-3,13-dimethylhexadecahydro-1H-cyclopenta[a]phenanthren-17-yl)-2-(5-methyl-2H-tetrazol-2-yl)ethan-1-one] |  | 150 nM | 38.00% | 91.21 s | 635.4 ± 149.9 s | 1506.8 ± 149.8 s | 30% | 1.8 ± 0.3 | 0.3 ± 0.2 | 1618.1 ± 121.3 s |  |  |  |
| C[C@@H]1C[C@H](C(=O)Cn2cc(C#N)c(Cl)n2)[C@@]2(C)CC[C@H]3[C@@H](CC[C@@H]4C[C@](C)(O)CC[C@@H]43)[C@H]12 [Example 88, 3-Chloro-1-(2-((3R,5R,8R,9R,10S,13S,14S,15R,17S)-3-hydroxy-3,13,15-trimethylhexadecahydro-1H-cyclopenta[a]phenanthren-17-yl)-2-oxoethyl)-1H-pyrazole-4-carbonitrile] | 6.7 nM | 49 nM |  |  |  |  |  |  |  |  |  |  |  |
| C[C@@H]1C[C@H](C(=O)Cn2nc(C#N)cc2C#N)[C@@]2(C)CC[C@H]3[C@@H](CC[C@@H]4C[C@](C)(O)CC[C@@H]43)[C@H]12 [Example 89, 1-(2-((3R,5R,8R,9R,10S,13S,14S,15R,17S)-3-Hydroxy-3,13,15-trimethylhexadecahydro-1H-cyclopenta[a]phenanthren-17-yl)-2-oxoethyl)-1H-pyrazole-3,5-dicarbonitrile] | 4.3 nM | 43 nM |  |  |  |  |  |  |  |  |  |  |  |
| C[C@@]1(O)CC[C@H]2[C@H](CC[C@@H]3[C@@H]2CC[C@@]2(C)[C@H]3[C@H](C3CC3)C[C@@H]2C(=O)Cn2nc(C#N)cc2C#N)C1 [Example 96, 1-(2-((3R,5R,8R,9R,10S,13S,14S,15S,17S)-15-Cyclopropyl-3-hydroxy-3,13-dimethylhexadecahydro-1H-cyclopenta[a]phenanthren-17-yl)-2-oxoethyl)-1H-pyrazole-3,5-dicarbonitrile] | 28.5 nM | 84 nM |  |  |  |  |  |  |  |  |  |  |  |

From patent US12590118B2, “Salt and crystal form of steroid derivative regulator” (Shanghai Hansoh Biomedical Co., Ltd., priority 2019, dated 2026)
